Experimental data as given in the NIST ThermoML archive (doi:10.1016/j.fluid.2013.07.054).
Numbers after ± are expanded uncertainties.

Settings: 298.15 K; 101 kPa; Liquid; Vibrating tube method
For `CCC(C)=O` [butanone], the mass density was 800.3 ± 0.11 kg/m3. For `CC(=O)C(C)C` [3-methyl-2-butanone], the mass density was 800.63 ± 0.11 kg/m3. Compound `CC(=O)CC(C)C` [4-methylpentan-2-one] has a mass density of 796.23 ± 0.11 kg/m3.
